Laboratory results published in patent US6982283B2, “Method for treating drug-induced constipation” (Sucampo AG, priority 2001, dated 2006).
Where a name gives a salt, the structure may show the parent alone. Marks after values point to notes of the source that are not given here.

How the values were obtained:
Format in all cases: in vivo
Male ICR mice [1] = test: Antagonism to imipramine-induced constipation: carbon marker in the caecum
Protocol: Male ICR mice were fasted overnight in wire-bottomed cages to prevent coprophagia, and 10 mice were used for each group. Imipramine hydrochloride (Wako Pure Chemical Industries, Ltd., Osaka, Japan) at 60 mg/kg was injected intraperitoneally to the animals. Immediately after the imipramine-injection, 0.1 mL of carbon marker (10% carbon powder suspension in 5% gum Arabic) and vehicle (physiological saline solution containing 0.01% polysorbate 80 and 0.5% ethanol) or test substance (13,14-dihydro-15-keto-16,16-difluoro-PGE1) in an administration volume of 5 mL/kg were orally administered. A normal control group received carbon marker and vehicle in the above volume orally without the imipramine-injection. One hundred and fifty minutes after the administration of carbon marker, animals were sacrificed by cervical dislocation, and examined the caecum for the presence of carbon marker. It was judged as a positive response when carbon marker was found in the caecum (positive scores).
The effect to the imipramine-induced constipation was evaluated on the cathartic (sennoside) clinically used for the treatment of the constipation in patients. Preparation and dose levels of sennoside were the same as described in example 2. The experimental procedure was the same as described in example 4.

Male ICR mice [2] = test: Effect on analgesic action of morphine: tail-pinch response time
Protocol: Male ICR mice were fasted overnight in wire-bottomed cages to prevent coprophagia. The tail of the animal was pinched with clamp forceps, and the response time from the tail-pinch to fierce striking, biting or crying was measured. 18 mice whose response time of 2 second or shorter were used as test animals. […] Immediately after the morphine-injection, vehicle (physiological saline containing 0.01% polysorbate 80 and 0.5% ethanol) or 1, 10, or 100 μg/kg test substance (13,14-dihydro-15-keto-16,16-difluoro-PGE1) dissolved in the vehicle was administered orally in an administration volume of 5 mL/kg. The animals of normal control group received vehicle orally in the above volume without morphine-injection.
The response time of each animal following tail-pinch was measured 30, 60, 90, 120 and 150 minutes after the administration. If a mouse took longer than 10 seconds to respond, measurement was stopped to avoid injuring the tail tissue, and the response time was recorded as 10 second.

Male ICR mice [3] = test: Antagonism to morphine-induced constipation: graphite marker in the caecum; details: for Effect on morphine-induced constipation: at the clinical daily dosage and at 10 times of the clinical daily dosage
[4] = imipramine 60 mg/kg i.p. + vehicle orally, Example 4, Table 5
[5] = imipramine 60 mg/kg i.p. + vehicle, Example 5, Table 6
[6] = morphine 5 mg/kg i.p. + sodium picosulfate 0.15 mg/kg, 150 min after graphite marker
[7] = morphine 5 mg/kg i.p. + sodium picosulfate 1.5 mg/kg, 150 min after graphite marker
[8] = imipramine 60 mg/kg i.p. + test substance 10 μg/kg orally, 150 min after carbon marker
[9] = imipramine 60 mg/kg i.p. + test substance 100 μg/kg orally, 150 min after carbon marker
[10] = imipramine 60 mg/kg i.p. + sennoside 0.48 μg/kg, 150 min after carbon marker
[11] = imipramine 60 mg/kg i.p. + sennoside 4.8 μg/kg, 150 min after carbon marker
[12] = morphine 5 mg/kg i.p. + sennoside 0.48 mg/kg, 150 min after graphite marker
[13] = morphine 5 mg/kg i.p. + sennoside 4.8 mg/kg, 150 min after graphite marker

Compound: CN(C)CCCN1c2ccccc2CCc2ccccc21 [Imipramine, Imipramine hydrochloride]
- Number of animals with positive scores/Number of animals tested (Male ICR mice [1]; [4]): 1/10
- Ratio of animals with positive scores (Male ICR mice [1]; [4]): 10%
- Number of animals with positive scores/Number of animals tested (Male ICR mice [1]; [5]): 1/10
- Ratio of animals with positive scores (Male ICR mice [1]; [5]): 10%

Compound: CN1CC[C@]23c4c5ccc(O)c4O[C@H]2[C@@H](O)C=C[C@H]3[C@H]1C5.Cl [Morphine, Morphine hydrochloride, reference compound]
- Response time, mean ± S.E. (Male ICR mice [2]; morphine 5 mg/kg i.p. + vehicle orally, 30 min after administration): 2.8 ± 0.6 s
- Response time, mean ± S.E. (Male ICR mice [2]; morphine 5 mg/kg i.p. + vehicle orally, 60 min after administration): 1.9 ± 0.3 s
- Response time, mean ± S.E. (Male ICR mice [2]; morphine 5 mg/kg i.p. + vehicle orally, 90 min after administration): 1.8 ± 0.4^+ sec.
- Response time, mean ± S.E. (Male ICR mice [2]; morphine 5 mg/kg i.p. + vehicle orally, 120 min after administration): 1.4 ± 0.2 s
- Response time, mean ± S.E. (Male ICR mice [2]; morphine 5 mg/kg i.p. + vehicle orally, 150 min after administration): 1.2 ± 0.1 s
- Response time, mean ± S.E. (Male ICR mice [2]; morphine 5 mg/kg i.p. + vehicle orally, before administration): 1.0 ± 0.1 s
- Number of animals with positive scores/Number of animals tested (Male ICR mice [3]; morphine 5 mg/kg i.p. + vehicle (0.5% tragacanth solution), Example 2, Table 2): 2/10
- Number of animals with positive scores/Number of animals tested (Male ICR mice [3]; morphine 5 mg/kg i.p. + vehicle (physiological saline), Example 2, Table 3): 3/10
- Number of animals with positive scores/Number of animals tested (Male ICR mice [3]; morphine 5 mg/kg i.p. + vehicle (saline, 0.01% polysorbate 80, 0.5% ethanol) orally, Example 1, Table 1): 3
- Number of animals with positive scores/Number of animals tested (Male ICR mice [3]; morphine 5 mg/kg i.p. + vehicle (saline, 0.01% polysorbate 80, 0.5% ethanol) orally, Example 1, Table 1, hydrochloride): 3/15

Compound: O=S(=O)(O)Oc1ccc(C(c2ccc(OS(=O)(=O)O)cc2)c2ccccn2)cc1 [sodium picosulfate, Sodium picosulfate]
- Effect on morphine-induced constipation (Male ICR mice [3]): no effect
- Number of animals with positive scores/Number of animals tested (Male ICR mice [3]; [6]): 3/10
- Ratio of animals with positive scores (Male ICR mice [3]; [6]): 30%
- Number of animals with positive scores/Number of animals tested (Male ICR mice [3]; [7]): 4/10
- Ratio of animals with positive scores (Male ICR mice [3]; [7]): 40%

Compound: CCCCC(F)(F)C(=O)CCC1C(O)CC(=O)C1CCCCCCC(=O)O (centres unmarked) [test substance, 13,14-dihydro-15-keto-16,16-difluoro-PGE1]
- Number of animals with positive scores/Number of animals tested (Male ICR mice [1]; [8]): 3/10
- Ratio of animals with positive scores (Male ICR mice [1]; [8]): 30%
- Number of animals with positive scores/Number of animals tested (Male ICR mice [1]; [9]): 7/10**
- Ratio of animals with positive scores (Male ICR mice [1]; [9]): 70%
- Response time, mean ± S.E. (Male ICR mice [2]; morphine 5 mg/kg i.p. + test substance 1 μg/kg orally, 30 min after administration): 3.2 ± 0.7 s
- Response time, mean ± S.E. (Male ICR mice [2]; morphine 5 mg/kg i.p. + test substance 1 μg/kg orally, 60 min after administration): 2.3 ± 0.6^+ sec.
- Response time, mean ± S.E. (Male ICR mice [2]; morphine 5 mg/kg i.p. + test substance 1 μg/kg orally, 90 min after administration): 1.5 ± 0.2 s
- Response time, mean ± S.E. (Male ICR mice [2]; morphine 5 mg/kg i.p. + test substance 1 μg/kg orally, 120 min after administration): 1.3 ± 0.1 s
- Response time, mean ± S.E. (Male ICR mice [2]; morphine 5 mg/kg i.p. + test substance 1 μg/kg orally, 150 min after administration): 1.3 ± 0.1 s
- Response time, mean ± S.E. (Male ICR mice [2]; morphine 5 mg/kg i.p. + test substance 1 μg/kg orally, before administration): 1.0 ± 0.1 s
- Response time, mean ± S.E. (Male ICR mice [2]; morphine 5 mg/kg i.p. + test substance 10 μg/kg orally, 30 min after administration): 3.4 ± 0.5 s
- Response time, mean ± S.E. (Male ICR mice [2]; morphine 5 mg/kg i.p. + test substance 10 μg/kg orally, 60 min after administration): 1.8 ± 0.2 s
- Response time, mean ± S.E. (Male ICR mice [2]; morphine 5 mg/kg i.p. + test substance 10 μg/kg orally, 90 min after administration): 1.4 ± 0.1 s
- Response time, mean ± S.E. (Male ICR mice [2]; morphine 5 mg/kg i.p. + test substance 10 μg/kg orally, 120 min after administration): 1.3 ± 0.1 s
- Response time, mean ± S.E. (Male ICR mice [2]; morphine 5 mg/kg i.p. + test substance 10 μg/kg orally, 150 min after administration): 1.2 ± 0.1 s
- Response time, mean ± S.E. (Male ICR mice [2]; morphine 5 mg/kg i.p. + test substance 10 μg/kg orally, before administration): 1.0 ± 0.1 s
- Response time, mean ± S.E. (Male ICR mice [2]; morphine 5 mg/kg i.p. + test substance 100 μg/kg orally, 30 min after administration): 2.9 ± 0.6 s
- Response time, mean ± S.E. (Male ICR mice [2]; morphine 5 mg/kg i.p. + test substance 100 μg/kg orally, 60 min after administration): 1.8 ± 0.3 s
- Response time, mean ± S.E. (Male ICR mice [2]; morphine 5 mg/kg i.p. + test substance 100 μg/kg orally, 90 min after administration): 1.5 ± 0.1 s
- Response time, mean ± S.E. (Male ICR mice [2]; morphine 5 mg/kg i.p. + test substance 100 μg/kg orally, 120 min after administration): 1.2 ± 0.1 s
- Response time, mean ± S.E. (Male ICR mice [2]; morphine 5 mg/kg i.p. + test substance 100 μg/kg orally, 150 min after administration): 1.3 ± 0.1 s
- Response time, mean ± S.E. (Male ICR mice [2]; morphine 5 mg/kg i.p. + test substance 100 μg/kg orally, before administration): 1.0 ± 0.1 s
- Effect on the analgesic action of morphine (Male ICR mice [2]; test substance 1, 10 or 100 μg/kg orally, compared with morphine+vehicle group): did not affect
- Ratio of animals with positive scores (Male ICR mice [3]; morphine 5 mg/kg i.p. + test substance 1 μg/kg orally, 150 min after graphite marker): 60%
- Ratio of animals with positive scores (Male ICR mice [3]; morphine 5 mg/kg i.p. + test substance 10 μg/kg orally, 150 min after graphite marker): 87%
- Ratio of animals with positive scores (Male ICR mice [3]; morphine 5 mg/kg i.p. + test substance 100 μg/kg orally, 150 min after graphite marker): 93%
- Antagonism of morphine-induced constipation compared with control (morphine+vehicle) group (Male ICR mice [3]; test substance 1, 10 or 100 μg/kg orally immediately after morphine): significantly antagonized

Compound: Sennoside
- Effect on the imipramine-induced constipation (Male ICR mice [1]; Example 5, results of Table 6): no effect
- Number of animals with positive scores/Number of animals tested (Male ICR mice [1]; [10]): 2/10
- Ratio of animals with positive scores (Male ICR mice [1]; [10]): 20%
- Number of animals with positive scores/Number of animals tested (Male ICR mice [1]; [11]): 2/10
- Ratio of animals with positive scores (Male ICR mice [1]; [11]): 20%
- Effect on morphine-induced constipation (Male ICR mice [3]): no effect
- Number of animals with positive scores/Number of animals tested (Male ICR mice [3]; [12]): 2/10
- Ratio of animals with positive scores (Male ICR mice [3]; [12]): 20%
- Number of animals with positive scores/Number of animals tested (Male ICR mice [3]; [13]): 2/10
- Ratio of animals with positive scores (Male ICR mice [3]; [13]): 20%
